Laboratory results: paper PMC9898036, “VIP152 is a selective CDK9 inhibitor with pre-clinical in vitro and in vivo efficacy in chronic lymphocytic leukemia” (Leukemia, 2022)
Read-outs that look alike come from different tables or passages of the source.

Legend:
Test in all cases: DiscoverX KINOMEscan kinase profiling (468 assays)
Format in all cases: binding
[1] = target: human kinome (Homo sapiens, UniProt Q9H422); conditions: HIPK3; 100 nM; read-out: Percent Control
How it was run: (§1)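 DNA-tagged kinases competed for immobilized biotinylated ligands on streptavidin magnetic beads, with bound kinase quantified by qPCR. VIP152 in DMSO was tested against a DMSO control.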

[2] = target: human kinome (Homo sapiens, UniProt O15197); conditions: EPHB6; 100 nM; read-out: Percent Control
How it was run: as §1

[3] = target: human kinome (Homo sapiens, UniProt O96013); conditions: read-out: Percent Control
How it was run: as §1

[4] = target: human kinome (Homo sapiens, UniProt P22607, G697C); conditions: FGFR3(G697C); 100 nM; read-out: Percent Control
How it was run: as §1

[5] = target: human kinome (Homo sapiens, UniProt Q9Y5S2); conditions: MRCKB (Entrez CDC42BPB); 100 nM; read-out: Percent Control
How it was run: as §1

[6] = target: human kinome (Homo sapiens, UniProt P36888, K663Q); conditions: FLT3(K663Q); 100 nM; read-out: Percent Control
How it was run: as §1

[7] = target: human kinome (Homo sapiens, UniProt O95747); conditions: read-out: Percent Control
How it was run: as §1

[8] = target: human kinome (Homo sapiens, UniProt O43353); conditions: kinase RIPK2 (Entrez RIPK2); compound concentration 1000 nM; read-out: Percent Control
How it was run: as §1

[9] = target: human kinome (Homo sapiens, UniProt O14730); conditions: kinase RIOK3 (Entrez RIOK3); compound concentration 1000 nM; read-out: Percent Control
How it was run: as §1

[10] = target: human kinome (Homo sapiens, UniProt Q9UQ88); conditions: CDC2L2; 100 nM; read-out: Percent Control
How it was run: as §1

[11] = target: human kinome (Homo sapiens, UniProt P07949, V804L); conditions: kinase RET(V804L) (Entrez RET); compound concentration 1000 nM; read-out: Percent Control
How it was run: as §1

[12] = target: human kinome (Homo sapiens, UniProt Q05397); conditions: FAK (Entrez PTK2); 100 nM; read-out: Percent Control
How it was run: as §1

[13] = target: human kinome (Homo sapiens, UniProt P49759); conditions: CLK1; 100 nM; read-out: Percent Control
How it was run: as §1

[14] = target: human kinome (Homo sapiens, UniProt Q8TF76); conditions: HASPIN (Entrez GSG2); 100 nM; read-out: Percent Control
How it was run: as §1

[15] = target: human kinome (Homo sapiens, UniProt Q15746); conditions: read-out: Percent Control
How it was run: as §1

[16] = target: human kinome (Homo sapiens, UniProt P42336, Q546K); conditions: read-out: Percent Control
How it was run: as §1

[17] = target: human kinome (Homo sapiens, UniProt P00533, G719S); conditions: EGFR(G719S); 100 nM; read-out: Percent Control
How it was run: as §1

[18] = target: human kinome (Homo sapiens, UniProt P29320); conditions: EPHA3; 100 nM; read-out: Percent Control
How it was run: as §1

[19] = target: human kinome (Homo sapiens, UniProt O75116); conditions: kinase ROCK2 (Entrez ROCK2); compound concentration 1000 nM; read-out: Percent Control
How it was run: as §1

[20] = target: human kinome (Homo sapiens, UniProt P09769); conditions: FGR; 100 nM; read-out: Percent Control
How it was run: as §1

[21] = target: human kinome (Homo sapiens, UniProt Q15418); conditions: compound concentration 1000 nM, read-out: Percent Control
How it was run: as §1

[22] = target: human kinome (Homo sapiens, UniProt P06213); conditions: INSR; 100 nM; read-out: Percent Control
How it was run: as §1

[23] = target: human kinome (Homo sapiens, UniProt P21860); conditions: ERBB3; 100 nM; read-out: Percent Control
How it was run: as §1

[24] = target: human kinome (Homo sapiens, UniProt Q6ZWH5); conditions: read-out: Percent Control
How it was run: as §1

[25] = target: human kinome (Homo sapiens, UniProt O75460); conditions: ERN1; 100 nM; read-out: Percent Control
How it was run: as §1

[26] = target: human kinome (Homo sapiens, UniProt P10721, L576P); conditions: KIT(L576P); 100 nM; read-out: Percent Control
How it was run: as §1

[27] = target: human kinome (Homo sapiens, UniProt Q07912); conditions: kinase TNK2 (Entrez TNK2); compound concentration 1000 nM; read-out: Percent Control
How it was run: as §1

[28] = target: human kinome (Homo sapiens, UniProt P31749); conditions: AKT1; 100 nM; read-out: Percent Control
How it was run: as §1

[29] = target: human kinome (Homo sapiens, UniProt Q9UPE1); conditions: kinase SRPK3 (Entrez SRPK3); compound concentration 1000 nM; read-out: Percent Control
How it was run: as §1

Chain of human kinome (Homo sapiens, UniProt O95747) (O95747 whole entry): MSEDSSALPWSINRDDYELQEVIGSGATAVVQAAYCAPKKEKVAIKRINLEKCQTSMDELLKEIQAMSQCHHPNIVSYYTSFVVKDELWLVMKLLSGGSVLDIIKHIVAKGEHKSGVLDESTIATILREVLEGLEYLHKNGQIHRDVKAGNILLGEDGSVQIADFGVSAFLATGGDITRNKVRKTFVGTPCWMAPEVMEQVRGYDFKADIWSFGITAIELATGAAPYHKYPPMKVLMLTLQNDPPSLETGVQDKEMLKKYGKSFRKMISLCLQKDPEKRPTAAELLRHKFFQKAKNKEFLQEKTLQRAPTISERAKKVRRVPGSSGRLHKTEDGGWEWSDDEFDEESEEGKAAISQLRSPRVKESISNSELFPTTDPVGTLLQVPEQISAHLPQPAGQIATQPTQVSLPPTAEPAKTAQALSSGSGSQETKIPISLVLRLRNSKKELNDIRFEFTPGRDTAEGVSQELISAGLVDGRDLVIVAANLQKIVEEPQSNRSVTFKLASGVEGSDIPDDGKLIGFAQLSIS
Chain of human kinome (Homo sapiens, UniProt Q15418) (Q15418 whole entry): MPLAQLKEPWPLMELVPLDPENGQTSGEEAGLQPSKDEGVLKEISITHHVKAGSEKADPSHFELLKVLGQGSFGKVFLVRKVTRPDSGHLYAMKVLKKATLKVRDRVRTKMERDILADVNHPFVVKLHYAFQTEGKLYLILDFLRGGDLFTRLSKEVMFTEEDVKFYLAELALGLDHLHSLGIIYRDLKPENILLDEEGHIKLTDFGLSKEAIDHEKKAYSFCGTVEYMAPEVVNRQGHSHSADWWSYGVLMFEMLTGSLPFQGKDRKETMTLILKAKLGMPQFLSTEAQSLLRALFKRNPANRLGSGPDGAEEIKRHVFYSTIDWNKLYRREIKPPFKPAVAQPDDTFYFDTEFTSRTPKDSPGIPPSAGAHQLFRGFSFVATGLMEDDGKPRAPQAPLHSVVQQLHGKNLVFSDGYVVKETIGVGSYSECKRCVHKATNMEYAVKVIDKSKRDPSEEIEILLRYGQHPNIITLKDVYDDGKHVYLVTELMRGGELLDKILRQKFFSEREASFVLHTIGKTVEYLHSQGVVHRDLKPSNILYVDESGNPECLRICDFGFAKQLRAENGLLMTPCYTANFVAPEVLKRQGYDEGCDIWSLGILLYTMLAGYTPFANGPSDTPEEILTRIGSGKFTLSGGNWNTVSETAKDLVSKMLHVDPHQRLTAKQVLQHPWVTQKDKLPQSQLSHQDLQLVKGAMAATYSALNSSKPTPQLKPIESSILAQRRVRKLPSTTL
Chain of human kinome (Homo sapiens, UniProt P42336, Q546K) (P42336 whole entry Q546K): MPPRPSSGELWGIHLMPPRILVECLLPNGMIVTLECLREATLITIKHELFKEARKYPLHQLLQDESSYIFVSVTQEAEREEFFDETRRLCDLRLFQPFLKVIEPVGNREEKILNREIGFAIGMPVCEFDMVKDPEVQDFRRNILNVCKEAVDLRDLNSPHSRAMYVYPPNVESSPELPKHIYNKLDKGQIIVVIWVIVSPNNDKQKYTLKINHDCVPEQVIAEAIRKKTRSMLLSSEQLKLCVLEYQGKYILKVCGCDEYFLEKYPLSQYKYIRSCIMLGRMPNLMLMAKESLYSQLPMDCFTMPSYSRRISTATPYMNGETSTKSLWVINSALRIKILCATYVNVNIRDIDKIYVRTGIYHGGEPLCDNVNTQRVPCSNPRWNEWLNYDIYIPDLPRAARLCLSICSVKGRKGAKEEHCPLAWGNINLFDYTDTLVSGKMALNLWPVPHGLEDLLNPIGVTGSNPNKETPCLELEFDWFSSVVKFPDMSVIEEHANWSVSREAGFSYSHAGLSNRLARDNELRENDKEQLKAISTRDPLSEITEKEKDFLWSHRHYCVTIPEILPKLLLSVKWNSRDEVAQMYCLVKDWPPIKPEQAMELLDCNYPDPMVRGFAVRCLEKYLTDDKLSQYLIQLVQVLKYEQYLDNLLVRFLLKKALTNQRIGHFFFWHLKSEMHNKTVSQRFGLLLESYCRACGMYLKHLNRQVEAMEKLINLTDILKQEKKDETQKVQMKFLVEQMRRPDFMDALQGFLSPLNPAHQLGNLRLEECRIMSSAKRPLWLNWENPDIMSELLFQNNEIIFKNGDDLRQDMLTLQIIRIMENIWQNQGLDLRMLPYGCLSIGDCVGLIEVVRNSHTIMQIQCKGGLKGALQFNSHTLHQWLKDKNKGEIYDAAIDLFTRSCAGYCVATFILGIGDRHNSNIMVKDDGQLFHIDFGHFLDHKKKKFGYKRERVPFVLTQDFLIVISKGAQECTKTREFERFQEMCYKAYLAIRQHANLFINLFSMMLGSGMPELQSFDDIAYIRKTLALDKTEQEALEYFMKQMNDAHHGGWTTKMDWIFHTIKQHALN
Chain of human kinome (Homo sapiens, UniProt Q6ZWH5) (Q6ZWH5 whole entry): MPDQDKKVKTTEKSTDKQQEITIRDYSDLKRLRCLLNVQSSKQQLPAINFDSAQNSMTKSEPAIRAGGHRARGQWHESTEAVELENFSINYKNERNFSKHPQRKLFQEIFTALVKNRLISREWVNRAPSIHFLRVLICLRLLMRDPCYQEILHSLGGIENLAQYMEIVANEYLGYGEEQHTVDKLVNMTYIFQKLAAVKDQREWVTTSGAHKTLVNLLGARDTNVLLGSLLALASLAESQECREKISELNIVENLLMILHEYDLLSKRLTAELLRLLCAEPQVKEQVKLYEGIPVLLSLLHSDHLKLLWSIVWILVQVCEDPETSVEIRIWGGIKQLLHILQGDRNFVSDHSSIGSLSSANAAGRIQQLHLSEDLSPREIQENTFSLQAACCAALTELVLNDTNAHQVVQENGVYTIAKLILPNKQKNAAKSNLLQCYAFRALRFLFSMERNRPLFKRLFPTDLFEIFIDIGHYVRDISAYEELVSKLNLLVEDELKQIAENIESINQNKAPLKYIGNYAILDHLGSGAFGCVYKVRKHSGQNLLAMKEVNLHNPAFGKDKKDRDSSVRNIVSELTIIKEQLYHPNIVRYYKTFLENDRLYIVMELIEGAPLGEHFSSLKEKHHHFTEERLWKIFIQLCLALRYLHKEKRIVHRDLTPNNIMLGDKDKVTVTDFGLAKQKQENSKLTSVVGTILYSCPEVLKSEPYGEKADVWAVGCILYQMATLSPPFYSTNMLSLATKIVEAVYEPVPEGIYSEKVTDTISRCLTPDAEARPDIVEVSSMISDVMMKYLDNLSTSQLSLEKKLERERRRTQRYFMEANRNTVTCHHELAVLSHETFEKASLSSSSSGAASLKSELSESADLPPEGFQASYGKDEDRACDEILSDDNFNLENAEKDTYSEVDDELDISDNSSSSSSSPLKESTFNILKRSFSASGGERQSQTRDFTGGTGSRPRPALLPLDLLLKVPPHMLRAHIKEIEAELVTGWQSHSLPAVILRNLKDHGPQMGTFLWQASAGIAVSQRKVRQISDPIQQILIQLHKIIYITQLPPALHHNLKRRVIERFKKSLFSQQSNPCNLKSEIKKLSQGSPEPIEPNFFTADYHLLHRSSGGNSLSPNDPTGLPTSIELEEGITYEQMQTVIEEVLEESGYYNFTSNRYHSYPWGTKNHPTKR
Chain of human kinome (Homo sapiens, UniProt O96013) (O96013 whole entry): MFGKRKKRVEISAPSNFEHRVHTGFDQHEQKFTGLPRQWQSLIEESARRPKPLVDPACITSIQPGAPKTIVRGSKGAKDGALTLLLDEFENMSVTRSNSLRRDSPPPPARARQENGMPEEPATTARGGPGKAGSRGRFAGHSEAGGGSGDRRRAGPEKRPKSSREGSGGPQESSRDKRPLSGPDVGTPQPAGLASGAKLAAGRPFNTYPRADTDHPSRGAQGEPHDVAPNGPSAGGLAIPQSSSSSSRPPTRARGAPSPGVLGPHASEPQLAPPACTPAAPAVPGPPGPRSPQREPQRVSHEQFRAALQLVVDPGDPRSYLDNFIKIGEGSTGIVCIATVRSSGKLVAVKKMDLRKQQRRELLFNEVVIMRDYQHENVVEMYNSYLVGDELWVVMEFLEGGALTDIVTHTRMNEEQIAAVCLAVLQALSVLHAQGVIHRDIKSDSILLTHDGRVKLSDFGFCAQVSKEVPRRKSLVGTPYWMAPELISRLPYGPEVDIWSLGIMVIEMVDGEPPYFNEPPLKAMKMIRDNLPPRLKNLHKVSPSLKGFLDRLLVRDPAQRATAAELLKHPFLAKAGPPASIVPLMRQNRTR
Chain of human kinome (Homo sapiens, UniProt O14730) (O14730 whole entry): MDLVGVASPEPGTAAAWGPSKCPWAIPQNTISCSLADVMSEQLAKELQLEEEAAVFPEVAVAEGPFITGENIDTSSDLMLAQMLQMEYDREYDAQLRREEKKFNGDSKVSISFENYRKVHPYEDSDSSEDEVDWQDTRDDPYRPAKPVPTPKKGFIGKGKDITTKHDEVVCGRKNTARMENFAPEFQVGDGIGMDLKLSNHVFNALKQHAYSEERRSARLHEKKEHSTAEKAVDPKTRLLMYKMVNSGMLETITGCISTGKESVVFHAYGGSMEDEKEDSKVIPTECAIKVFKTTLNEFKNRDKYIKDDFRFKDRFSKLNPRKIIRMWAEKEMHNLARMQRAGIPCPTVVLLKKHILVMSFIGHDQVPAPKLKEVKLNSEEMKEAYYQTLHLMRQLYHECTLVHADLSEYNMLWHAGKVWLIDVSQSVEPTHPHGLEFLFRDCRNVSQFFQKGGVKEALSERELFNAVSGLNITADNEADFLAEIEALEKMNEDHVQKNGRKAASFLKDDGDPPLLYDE

For `COc1cc(F)ccc1-c1cc(Nc2cc(CS(C)(=N)=O)ccn2)ncc1F` (centres unmarked) [VIP152], the remaining binding at 0.1 µM [1] was 100%, the remaining binding at 0.1 µM [2] was 87% and the remaining binding at 0.1 µM ([3]; PAK4, 100 nM) was 100%. The remaining binding at 1 µM ([3]; kinase PAK4 (Entrez PAK4), compound concentration 1000 nM) was 89%, the remaining binding at 0.1 µM [4] was 100% and the remaining binding at 0.1 µM [5] was 100%. The remaining binding at 0.1 µM [6] was 100%, the remaining binding at 0.1 µM ([7]; OSR1 (Entrez OXSR1), 100 nM) was 100% and the remaining binding at 1 µM ([7]; kinase OSR1 (Entrez OXSR1), compound concentration 1000 nM) was 100%. For the same compound, the remaining binding at 1 µM [8] was 49%, the remaining binding at 1 µM [9] was 79% and the remaining binding at 0.1 µM [10] was 100%. The remaining binding at 1 µM [11] was 86%, the remaining binding at 0.1 µM [12] was 100% and the remaining binding at 0.1 µM [13] was 92%. The remaining binding at 0.1 µM [14] was 93%, the remaining binding at 0.1 µM ([15]; MYLK, 100 nM) was 95% and the remaining binding at 1 µM ([15]; kinase MYLK (Entrez MYLK), compound concentration 1000 nM) was 77%. It also gave a remaining binding at 0.1 µM ([16]; PIK3CA(Q546K), 100 nM) of 100%, a remaining binding at 1 µM ([16]; kinase PIK3CA(Q546K) (Entrez PIK3CA), compound concentration 1000 nM) of 96% and a remaining binding at 0.1 µM [17] of 100%. It also gave a remaining binding at 0.1 µM [18] of 100%, a remaining binding at 1 µM [19] of 87% and a remaining binding at 0.1 µM [20] of 100%. The remaining binding at 1 µM ([21]; kinase RSK1(Kin.Dom.1-N-terminal) (Entrez RPS6KA1)) was 95%, the remaining binding at 1 µM ([21]; kinase RSK1(Kin.Dom.2-C-terminal) (Entrez RPS6KA1)) was 89% and the remaining binding at 0.1 µM [22] was 100%. For the same compound, the remaining binding at 0.1 µM [23] was 100%, the remaining binding at 0.1 µM ([24]; NEK10, 100 nM) was 97% and the remaining binding at 1 µM ([24]; kinase NEK10 (Entrez NEK10), compound concentration 1000 nM) was 77%. It also gave a remaining binding at 0.1 µM [25] of 88%, a remaining binding at 0.1 µM [26] of 100% and a remaining binding at 1 µM [27] of 92%. The remaining binding at 0.1 µM [28] was 100% and the remaining binding at 1 µM [29] was 68%.
